Reference: EP0726261A1, “Herbidical 1,2,4 thiadiazoles” (American Cyanamid Company, priority 1995, dated 1996)

Assays:
Format in all cases: in vivo
Beta vulgaris [1] = experiment: Herbicidal activity, preemergence test (Example 66); parameters: key: A rating of 0 indicates growth as untreated control; a rating of 9 indicates death; conditions: pre; 1000 g/ha; assessed visually twenty days after spraying
Protocol: (§1) To evaluate their herbicidal activity, compounds according to the invention are tested using a representative range of plants: ZEAMX Zea mays ORYSA Oryza sativa GLXMA Glycine max BEAVA Beta vulgaris LIUUT Linum usitatissimum AVEFA Avena fatua ECHCG Echinochloa crus-galli SINAL Sinapsis alba
(§2) The tests fall into two categories, preemergence and postemergence. The preemergence tests involve spraying a liquid formulation of the compound onto the soil in which the seeds of the plant species mentioned above have recently been sown. The postemergence tests involve spraying a liquid formulation of the compound onto seedling plants of the above species.
(§3) The soil used in the tests is a prepared horticultural loam.
(§4) The formulations used in the tests are prepared from solutions of the test compounds in acetone containing 0.4% by weight of an alkylphenol/ethylene oxide condensate available under the trademark TRITON X-155. These acetone solutions are diluted with water and the resulting formulations applied at dosage levels corresponding to 1000 g of active material per hectare in a volume equivalent to 900 litres per hectare.
(§5) In the preemergence tests, untreated sown soil, and in the postemergence tests, untreated soil bearing seedling plants, are used as controls.
(§6) The herbicidal effects of the test compounds are assessed visually twenty days after spraying the foliage and the soil and are recorded on a 0-9 scale. A rating of 0 indicates growth as untreated control, a rating of 9 indicates death. An increase of 1 unit on the linear scale approximates to an 11% increase in the level of effect.

Echinochloa crus-galli [2] = experiment: as above; parameters: key: A rating of 0 indicates growth as untreated control; a rating of 9 indicates death; conditions: pre; 1000 g/ha; assessed visually twenty days after spraying
Protocol: as §1, §2, §3, §4, §5, §6

Glycine max [3] = experiment: as above; parameters: key: A rating of 0 indicates growth as untreated control; a rating of 9 indicates death; conditions: pre; 1000 g/ha; assessed visually twenty days after spraying
Protocol: as §1, §2, §3, §4, §5, §6

Sinapsis alba [4] = experiment: as above; parameters: key: A rating of 0 indicates growth as untreated control; a rating of 9 indicates death; conditions: pre; 1000 g/ha; assessed visually twenty days after spraying
Protocol: as §1, §2, §3, §4, §5, §6

Oryza sativa [5] = experiment: as above; parameters: key: A rating of 0 indicates growth as untreated control; a rating of 9 indicates death; conditions: pre; 1000 g/ha; assessed visually twenty days after spraying
Protocol: as §1, §2, §3, §4, §5, §6

Avena fatua [6] = experiment: as above; parameters: key: A rating of 0 indicates growth as untreated control; a rating of 9 indicates death; conditions: pre; 1000 g/ha; assessed visually twenty days after spraying
Protocol: as §1, §2, §3, §4, §5, §6

Zea mays [7] = experiment: as above; parameters: key: A rating of 0 indicates growth as untreated control; a rating of 9 indicates death; conditions: pre; 1000 g/ha; assessed visually twenty days after spraying
Protocol: as §1, §2, §3, §4, §5, §6

Linum usitatissimum [8] = experiment: as above; parameters: key: A rating of 0 indicates growth as untreated control; a rating of 9 indicates death; conditions: pre; 1000 g/ha; assessed visually twenty days after spraying
Protocol: as §1, §2, §3, §4, §5, §6

Glycine max [9] = experiment: Herbicidal activity, postemergence test (Example 66); conditions: post; 1000 g/ha; assessed visually twenty days after spraying
Protocol: as §1, §2, §3, §4, §5, §6

Beta vulgaris [10] = experiment: as above; parameters: key: A rating of 0 indicates growth as untreated control; a rating of 9 indicates death; conditions: post; 1000 g/ha; assessed visually twenty days after spraying
Protocol: as §1, §2, §3, §4, §5, §6

Echinochloa crus-galli [11] = experiment: as above; parameters: key: A rating of 0 indicates growth as untreated control; a rating of 9 indicates death; conditions: post; 1000 g/ha; assessed visually twenty days after spraying
Protocol: as §1, §2, §3, §4, §5, §6

Sinapsis alba [12] = experiment: as above; parameters: key: A rating of 0 indicates growth as untreated control; a rating of 9 indicates death; conditions: post; 1000 g/ha; assessed visually twenty days after spraying
Protocol: as §1, §2, §3, §4, §5, §6

Oryza sativa [13] = experiment: as above; parameters: key: A rating of 0 indicates growth as untreated control; a rating of 9 indicates death; conditions: post; 1000 g/ha; assessed visually twenty days after spraying
Protocol: as §1, §2, §3, §4, §5, §6

Avena fatua [14] = experiment: as above; parameters: key: A rating of 0 indicates growth as untreated control; a rating of 9 indicates death; conditions: post; 1000 g/ha; assessed visually twenty days after spraying
Protocol: as §1, §2, §3, §4, §5, §6

Zea mays [15] = experiment: as above; parameters: key: A rating of 0 indicates growth as untreated control; a rating of 9 indicates death; conditions: post; 1000 g/ha; assessed visually twenty days after spraying
Protocol: as §1, §2, §3, §4, §5, §6

Linum usitatissimum [16] = experiment: as above; parameters: key: A rating of 0 indicates growth as untreated control; a rating of 9 indicates death; conditions: post; 1000 g/ha; assessed visually twenty days after spraying
Protocol: as §1, §2, §3, §4, §5, §6

| Compound | herbicidal effects on a 0-9 scale, BEAVA (Beta vulgaris [1]) | herbicidal effects on a 0-9 scale, ECHCG (Echinochloa crus-galli [2]) | herbicidal effects on a 0-9 scale, GLXMA (Glycine max [3]) | herbicidal effects on a 0-9 scale, SINAL (Sinapsis alba [4]) | herbicidal effects on a 0-9 scale, ORYSA (Oryza sativa [5]) | herbicidal effects on a 0-9 scale, AVEFA (Avena fatua [6]) | herbicidal effects on a 0-9 scale, ZEAMX (Zea mays [7]) | herbicidal effects on a 0-9 scale, LIUUT (Linum usitatissimum [8]) | herbicidal effects on a 0-9 scale, GLXMA (Glycine max [9]) | herbicidal effects on a 0-9 scale, BEAVA (Beta vulgaris [10]) | herbicidal effects on a 0-9 scale, ECHCG (Echinochloa crus-galli [11]) | herbicidal effects on a 0-9 scale, SINAL (Sinapsis alba [12]) | herbicidal effects on a 0-9 scale, ORYSA (Oryza sativa [13]) | herbicidal effects on a 0-9 scale, AVEFA (Avena fatua [14]) | herbicidal effects on a 0-9 scale, ZEAMX (Zea mays [15]) | herbicidal effects on a 0-9 scale, LIUUT (Linum usitatissimum [16]) |
| --- | --- | --- | --- | --- | --- | --- | --- | --- | --- | --- | --- | --- | --- | --- | --- | --- |
| CC(NC(=O)c1nc(C(C)(C)C)ns1)c1cccs1 (racemic) [Example 6, (R/S)-3-tert-Butyl-[1,2,4]thiadiazole-5-carboxylic acid, [1-(2-thienyl)ethyl]amide] | 9 | 0 | 0 | 7 | 0 | 0 | 0 | 3 | 7 | 9 | 9 | 9 | 2 | 7 | 0 | 9 |
| CC(C)Cc1nsc(C(=O)NC(C)c2cccs2)n1 (racemic) [Example 12, (R/S)-3-Isobutyl-[1,2,4]thiadiazole-5-carboxylic acid, [1-(2-thienyl)ethyl]amide] | 5 | 5 | 0 | 5 | 0 | 0 | 0 | 2 | 5 | 8 | 9 | 9 | 0 | 2 | 0 | 8 |
| CC(NC(=O)c1nc(-c2ccc(F)cc2)ns1)c1cccs1 (racemic) [Example 15, (R/S)-3-(4-Fluorophenyl)-[1,2,4]thiadiazole-5-carboxylic acid, [1-(2-thienyl)ethyl]amide] | 0 | 0 | 0 | 0 | 0 | 0 | 0 | 0 | 7 | 9 | 7 | 9 | 0 | 4 | 3 | 7 |
| CC(NC(=O)c1nc(-c2cccc(C(F)(F)F)c2)ns1)c1cccs1 (racemic) [Example 21, (R/S)-3-(3-Trifluoromethylphenyl)-[1,2,4]thiadiazole-5-carboxylic acid, [1-(2-thienyl)ethyl]amide] | 0 | 0 | 0 | 0 | 0 | 0 | 0 | 0 | 7 | 8 | 8 | 9 | 0 | 7 | 0 | 7 |
| CC(NC(=O)c1nsc(-c2ccccc2)n1)c1cccs1 (racemic) [Example 22] | 2 | 2 | 0 | 3 | 0 | 0 | 1 | 0 | 6 | 9 | 5 | 7 | 2 | 4 | 2 | 6 |
| CC(NC(=O)c1nsc(-c2ccc(Cl)cc2)n1)c1cccs1 (racemic) [Example 23, (R/S)-5-(4-Chlorophenyl)-[1,2,4]thiadiazole-3-carboxylic acid, [1-(2-thienyl)ethyl]amide] | 0 | 0 | 0 | 0 | 0 | 0 | 0 | 0 | 7 | 9 | 8 | 9 | 0 | 4 | 0 | 7 |
| C[C@H](NC(=O)c1nc(-c2ccccc2)ns1)c1ccccc1 [Example 5] | 4 | 0 | 0 | 0 | 0 | 0 | 0 | 0 | 4 | 5 | 8 | 9 | 0 | 6 | 2 | 7 |
| CC(C)(C)c1nsc(C(=O)NCc2cccs2)n1 [Example 7] | 0 | 0 | 0 | 0 | 0 | 0 | 0 | 0 | 3 | 8 | 0 | 8 | 0 | 0 | 0 | 4 |
| C[C@H](NC(=O)c1nc(C(C)(C)C)ns1)c1ccccc1 [Example 8, (S)-3-tert-Butyl-[1,2,4]thiadiazole-5-carboxylic acid, 1-(phenylethyl)amide] | 8 | 0 | 0 | 8 | 0 | 0 | 0 | 0 | 6 | 9 | 8 | 9 | 0 | 6 | 0 | 9 |
